Literature values, collected in publication PMC11170107, “Development of a new hazard scoring system in primary neuronal cell cultures for drug-induced acute neuronal toxicity identification in early drug discovery” (Frontiers in Pharmacology, 2024).

Key:
[1] = Supplementary Table S1; cited from earlier work
[2] = WHO adverse drug reactions VigiBase; ref Kumlien and Lundberg, 2010; cited from earlier work
[3] = ref National library of medicine, Daylimed; cited from earlier work
[4] = seizure ADR frequency in SIDER; ref Campillos et al., 2008; Kuhn et al., 2010; cited from earlier work

Compound | Free Cmax highest [1] [nM] | Percentage seizures of total number of ADRs [2] [%] | FDA prescription information at therapeutic dose (Convulsion/ Seizure/Lower the seizure threshold/withdrawal) [3] | SIDER ADR on-/off-label [4]
CC(=O)Nc1ccc(O)cc1 [Acetaminophen] | 540 | 0.4389 | not found on label | –
NC12CC3CC(CC(C3)C1)C2 [Amantadine] | 2840 | – | – | –
CCN(CC)C(C)C(=O)c1ccccc1 (stereo not shown) [Amfepramone] | 90 | – | – | –
Clc1ccc2c(c1)C(N1CCNCC1)=Nc1ccccc1O2 [Amoxapine] | 10 | 4.864 | on label | no frequency information
CC1(C)S[C@@H]2[C@H](NC(=O)[C@H](N)c3ccc(O)cc3)C(=O)N2[C@H]1C(=O)O [Amoxicillin] | 25830 | 0.1648 | on label | very rare, postmarketing
CC(N)Cc1ccccc1 (stereo not shown) [Amphetamine] | – | 1.043 | – | –
CN1CCc2cccc3c2[C@H]1Cc1ccc(O)c(O)c1-3 [Apomorphine] | 0.4 | 0.382 | not found on label | not found on label
O=C1CCc2ccc(OCCCCN3CCN(c4cccc(Cl)c4Cl)CC3)cc2N1 [Aripiprazole] | 11 | 1.175 | on label | Postmarketing
NC(=O)N1c2ccccc2C=Cc2ccccc21 [Carbamazepine] | 12100 | 5.289 | not found on label | common
C[C@@](Cc1ccc(O)c(O)c1)(NN)C(=O)O [Carbidopa] | 550 | 0.8032 | on label | no frequency information
CN(C)CCCN1c2ccccc2Sc2ccc(Cl)cc21 [Chlorpromazine] | 54 | 1.468 | On label | –
CN(C)CCCN1c2ccccc2CCc2ccc(Cl)cc21 [Clomipramine] | 9 | – | – | –
CN1CCN(C2=Nc3cc(Cl)ccc3Nc3ccccc32)CC1 [Clozapine] | 70 | – | – | –
COc1ccc2c3c1O[C@H]1[C@@H](O)C=C[C@H]4[C@@H](C2)N(C)CC[C@@]341 [Codeine] | 880 | – | – | –
CN1CCN(C(c2ccccc2)c2ccccc2)CC1 [Cyclizine] | 105 | 1.797 | – | no frequency information
C[C@@H]1C[C@H]2[C@@H]3CCC4=CC(=O)C=C[C@]4(C)[C@@]3(F)[C@@H](O)C[C@]2(C)[C@@]1(O)C(=O)CO [Dexamethasone] | 25 | 0.5218 | On label | no frequency information
COc1cccc2c1C(=O)c1c(O)c3c(c(O)c1C2=O)C[C@@](O)(C(=O)CO)C[C@@H]3O[C@H]1C[C@H](N)[C@H](O)[C@H](C)O1 [Doxorubicin] | 3990 | 0.3099 | On label | postmarketing, uncommon
COc1ccc(Cl)cc1[C@]1(F)C(=O)Nc2cc(C(F)(F)F)ccc21 [Flindokalner] | 340 | – | – | –

Compound | Free Cmax highest [1] [nM] | Percentage seizures of total number of ADRs [2] [%] | FDA prescription information at therapeutic dose (Convulsion/ Seizure/Lower the seizure threshold/withdrawal) [3] | SIDER ADR on-/off-label [4]
CN(C)CCCN1c2ccccc2CCc2ccccc21 [Imipramine] | 53 | 1.538 | On label | –
NNC(=O)c1ccncc1 [Isoniazid] | 57000 | 0.676 | on label | no frequency information
CC[C@@H](C(N)=O)N1CCCC1=O [Levetiracetam] | 276350 | 15.5539 | On label | 2.38% - 6%
Cc1ccc(F)c(NC(=O)Nc2ccc(-c3cccc4[nH]nc(N)c34)cc2)c1 [Linifanib] | – | 0 | – | –
O=C1N(c2ccccc2)c2ccccc2C1(Cc1ccncc1)Cc1ccncc1 [Linopirdine] | 3000 | – | – | –
CNCCCC12CCC(c3ccccc31)c1ccccc12 [Maprotiline] | 73.3 | 7.924 | – | no frequency information
CC1CCN(CCCC(=O)c2ccc(F)cc2)CC1 [Melperone] | 240 | – | – | –
CC(=O)/N=c1/sc(S(N)(=O)=O)nn1C [Methazolamide] | 20400 | 0 | On label | no frequency information
COC(=O)C(c1ccccc1)C1CCCCN1 (stereo not shown) [Methylphenidate] | 165 | – | On label | postmarketing
COc1c(N2C[C@@H]3CCCN[C@@H]3C2)c(F)cc2c(=O)c(C(=O)O)cn(C3CC3)c12 [Moxifloxacin] | 8134 | – | – | –
Cc1nccn1CC1CCc2c(c3ccccc3n2C)C1=O (stereo not shown) [Ondansetron] | 51.3 | 1.344 | on label | uncommon
Cc1ccccc1C(OCCN(C)C)c1ccccc1 (stereo not shown) [Orphenadrine] | 10 | 0.6083 | not found on label | not found on label
CC(C)NCC(O)COc1cccc2ccccc12 (stereo not shown) [Propranolol] | 120 | – | – | –
CC(C)(C)NCC(O)c1ccc(O)c(CO)c1 (stereo not shown) [Salbutamol] | 56 | 0.3555 | – | –
OC[C@@H](O)[C@@H](O)[C@H](O)[C@@H](O)CO [Sorbitol] | – | 0.6135 | not found on label | no frequency information
CC(C)(C)C(O)/C=C/c1ccc2c(c1)OCO2 (stereo not shown) [Stiripentol] | 670 | – | – | –
Cn1c(=O)c2[nH]cnc2n(C)c1=O [Theophylline] | 26580 | 4.2336 | – | –
C[C@@H]([C@@H](O)c1ccc(O)cc1)N1CCC(O)(c2ccccc2)CC1 [Traxoprodil (CP-101606), Traxoprodil] | 94 | – | – | –
